The values that follow come from ChEMBL document CHEMBL4665659, “Utilizing comprehensive and mini-kinome panels to optimize the selectivity of quinoline inhibitors for cyclin G associated kinase (GAK)” (Bioorg Med Chem Lett, 2019).

Activity calls are given as the source filed them. The rule behind the calls is not given here.

Test [1] addresses T1, Cyclin-G-associated kinase (Homo sapiens, UniProt O14976).
T1 sequence (O14976 whole entry): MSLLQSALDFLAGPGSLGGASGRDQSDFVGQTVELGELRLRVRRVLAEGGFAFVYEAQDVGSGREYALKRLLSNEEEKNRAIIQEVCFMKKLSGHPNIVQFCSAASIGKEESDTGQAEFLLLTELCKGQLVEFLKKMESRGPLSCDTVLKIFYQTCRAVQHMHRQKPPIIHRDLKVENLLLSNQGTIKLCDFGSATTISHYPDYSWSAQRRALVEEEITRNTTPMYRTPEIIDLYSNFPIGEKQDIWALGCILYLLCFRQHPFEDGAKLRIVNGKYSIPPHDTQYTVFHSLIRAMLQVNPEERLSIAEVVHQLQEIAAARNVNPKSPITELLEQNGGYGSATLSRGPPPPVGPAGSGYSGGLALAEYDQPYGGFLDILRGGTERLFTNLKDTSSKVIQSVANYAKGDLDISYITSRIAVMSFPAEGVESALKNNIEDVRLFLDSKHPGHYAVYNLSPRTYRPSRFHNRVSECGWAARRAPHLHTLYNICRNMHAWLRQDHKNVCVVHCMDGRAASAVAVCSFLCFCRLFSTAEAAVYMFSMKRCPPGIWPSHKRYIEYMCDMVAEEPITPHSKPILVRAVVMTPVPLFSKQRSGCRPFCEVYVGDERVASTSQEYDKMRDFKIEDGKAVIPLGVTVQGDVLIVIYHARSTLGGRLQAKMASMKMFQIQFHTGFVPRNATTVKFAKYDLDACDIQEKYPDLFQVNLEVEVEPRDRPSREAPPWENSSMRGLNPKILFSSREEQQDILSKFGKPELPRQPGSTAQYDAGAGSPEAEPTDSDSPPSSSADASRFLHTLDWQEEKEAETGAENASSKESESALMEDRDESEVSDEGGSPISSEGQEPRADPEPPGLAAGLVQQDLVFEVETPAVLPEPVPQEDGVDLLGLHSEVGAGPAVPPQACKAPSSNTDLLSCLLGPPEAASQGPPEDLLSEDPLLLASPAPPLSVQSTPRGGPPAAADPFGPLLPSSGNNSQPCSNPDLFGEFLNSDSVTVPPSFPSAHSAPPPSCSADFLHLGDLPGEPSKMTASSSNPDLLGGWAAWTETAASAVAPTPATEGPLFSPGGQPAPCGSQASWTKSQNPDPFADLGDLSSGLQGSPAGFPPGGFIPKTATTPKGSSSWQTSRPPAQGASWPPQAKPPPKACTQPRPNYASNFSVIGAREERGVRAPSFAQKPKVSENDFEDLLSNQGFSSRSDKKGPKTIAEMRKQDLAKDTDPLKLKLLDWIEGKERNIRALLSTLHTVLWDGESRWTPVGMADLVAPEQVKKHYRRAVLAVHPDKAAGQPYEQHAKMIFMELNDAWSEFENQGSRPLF
The test can be described thus: Binding affinity to human wild type partial length GAK (G13 to Y338 residues) expressed in bacterial expression system by KinomeScan method.

The species named for test [2] is Homo sapiens. The experiment in a line: Binding affinity to human ABL at 1 uM by Kinomescan method.
The target in test [3] is T2, Activin receptor type-1 (Homo sapiens) (UniProt Q04771).
T2 sequence (whole entry): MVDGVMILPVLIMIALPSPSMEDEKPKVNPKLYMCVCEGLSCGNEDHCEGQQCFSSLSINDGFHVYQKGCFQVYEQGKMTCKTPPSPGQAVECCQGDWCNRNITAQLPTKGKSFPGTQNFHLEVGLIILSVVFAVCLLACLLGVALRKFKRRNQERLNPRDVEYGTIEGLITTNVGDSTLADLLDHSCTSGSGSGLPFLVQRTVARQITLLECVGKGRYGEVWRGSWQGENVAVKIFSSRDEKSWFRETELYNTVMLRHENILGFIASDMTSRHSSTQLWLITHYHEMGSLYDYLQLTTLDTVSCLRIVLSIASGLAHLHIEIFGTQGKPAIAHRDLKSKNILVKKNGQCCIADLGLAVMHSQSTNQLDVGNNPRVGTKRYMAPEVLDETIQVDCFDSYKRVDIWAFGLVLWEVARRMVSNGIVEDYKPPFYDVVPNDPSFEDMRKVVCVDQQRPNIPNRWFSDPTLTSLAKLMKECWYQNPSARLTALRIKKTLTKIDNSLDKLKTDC
The experiment in a line: Inhibition of human wild type partial length ALK2 (C188 to C509 residues) expressed in bacterial expression system at 1 uM by Kinomescan method relative to control.

Test [4] has as its target RAF proto-oncogene serine/threonine-protein kinase (Homo sapiens) (UniProt P04049). The experiment in a line: Inhibition of human wild type partial length C-Raf (I330 to T640 residues) expressed in bacterial expression system at 1 uM by Kinomescan method relative to control.

Sequence of RAF proto-oncogene serine/threonine-protein kinase (Homo sapiens) (P04049 whole entry, the tested form may be a part): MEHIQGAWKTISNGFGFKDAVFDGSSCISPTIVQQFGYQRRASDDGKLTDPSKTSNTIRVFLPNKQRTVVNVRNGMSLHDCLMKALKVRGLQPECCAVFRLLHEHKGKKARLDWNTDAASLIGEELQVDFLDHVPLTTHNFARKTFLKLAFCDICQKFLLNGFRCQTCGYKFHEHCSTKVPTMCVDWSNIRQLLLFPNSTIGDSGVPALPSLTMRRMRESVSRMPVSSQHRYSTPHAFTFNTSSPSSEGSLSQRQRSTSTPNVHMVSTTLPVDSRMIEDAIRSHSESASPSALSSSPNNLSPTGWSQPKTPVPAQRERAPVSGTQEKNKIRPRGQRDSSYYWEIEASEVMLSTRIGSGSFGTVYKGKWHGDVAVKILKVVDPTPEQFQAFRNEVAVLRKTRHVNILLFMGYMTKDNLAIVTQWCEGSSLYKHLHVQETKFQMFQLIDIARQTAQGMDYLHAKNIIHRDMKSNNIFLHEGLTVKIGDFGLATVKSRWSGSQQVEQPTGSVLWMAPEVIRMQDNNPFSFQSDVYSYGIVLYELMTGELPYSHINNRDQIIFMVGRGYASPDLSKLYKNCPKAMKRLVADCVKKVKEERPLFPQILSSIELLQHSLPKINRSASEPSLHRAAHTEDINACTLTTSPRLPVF

Consider `COc1cc(Nc2ccnc3cc(C#N)ccc23)cc(OC)c1OC`, for which the Kd (in general, the free concentration of one partner at which half of the binding sites on the other are occupied at equilibrium, for simple one-to-one binding) in test [1] worked out at 0.043 µM. Also, the outcome in test [2] was Active. Moreover, the values for the inhibition in test [3] and in test [4] were 80% and 70%, respectively.
With `COc1cc(Nc2ccnc3cc(C(F)(F)F)ccc23)cc(OC)c1OC`, in test [1], the affinity, expressed as Kd, was 0.023 µM. For the same compound, the result in test [2] was Active. Besides, the inhibition (commonly the change of the read-out against control, counted positive when it falls) was found to be 80% in test [3] and 70% in test [4].
For `COc1cc(Nc2ccnc3cc(Br)ccc23)cc(OC)c1OC`, the equilibrium dissociation constant (Kd) in test [1] was found to be 0.0086 µM. The result in test [2] was Active. Also, the inhibition in test [3] turned out to be 80%; in test [4], 70%.
As to `COc1cc(Nc2ccnc3cc(Cl)ccc23)cc(OC)c1OC`, the Kd in test [1] is 0.013 µM. Further, the result in test [2] was Active. For the same compound, the inhibition stood at 80% in test [3] and 70% in test [4].
The like results for `COc1cc(Nc2ccnc3cc(I)ccc23)cc(OC)c1OC` were, in that order, 0.0076 µM, “Active”, 80% and 70%.
